# Results published in PubChem BioAssay AID1645867 (Buhrlage Lab, Dana-Farber Cancer Institute and Novartis …, 2021).
# Calls of active or inactive are those of the source. The rule behind the calls is not given here.
# Target: Ubiquitin carboxyl-terminal hydrolase isozyme L1 (Homo sapiens) (UniProt P09936)
# Assay: biochemical concentration-response of UCH-L1 DUB inhibitors, hit verification (AID 1645867)
# Conditions: recombinant UCHL1 deubiquitinase activity assay
# Ubiquitin carboxyl-terminal hydrolase isozyme L1 (Homo sapiens), sequence (P09936 whole entry, looked up): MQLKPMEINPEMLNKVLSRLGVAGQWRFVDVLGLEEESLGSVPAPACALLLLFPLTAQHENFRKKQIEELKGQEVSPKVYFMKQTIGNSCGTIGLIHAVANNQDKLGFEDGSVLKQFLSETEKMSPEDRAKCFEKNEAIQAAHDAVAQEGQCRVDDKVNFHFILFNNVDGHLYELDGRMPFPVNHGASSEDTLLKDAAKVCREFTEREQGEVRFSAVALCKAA
row,Structure (SMILES),IC50
1,Cc1ccc(NC(=O)c2nnn(CC(=O)Nc3cccc(C)c3C)c2N)cc1C,> 25 µM (inactive)
2,Cc1ccc2cc(-c3noc(CCC(=O)NC4CCCC4)n3)c(=O)[nH]c2c1,> 25 µM (inactive)
3,O=C(c1ccccc1F)c1cc(Cl)ccc1NC(=O)C1CCCO1 (stereo not drawn),> 25 µM (inactive)
4,COc1cccc(C(=O)N2CCc3nc(-c4ccc(F)cc4)ncc3C2)c1,> 25 µM (inactive)
5,O=C(Cn1c(=O)n(Cc2ccccc2)c(=O)c2ncccc21)NCc1ccccc1Cl,> 25 µM (inactive)
6,CC(C)=CCOC(C)(C)[C@H]1OC2CC[C@@]3(C)C(CCC4Cc5c([nH]c6ccccc56)[C@@]43C)C23OC3[C@@H]1O (stereo partly drawn),> 25 µM (inactive)
7,COc1ccc(OC)c(-c2cn3ccn(-c4ccc(F)c(Cl)c4)c(=O)c3n2)c1,> 25 µM (inactive)
8,O=C(Nc1c(C(=O)N2CCCCCC2)oc2ccccc12)C1CCCCC1,> 25 µM (inactive)
9,Cc1ccc(NC(=O)Nc2ccc(C)n(CC(=O)Nc3cccc(C)c3)c2=O)cc1,> 25 µM (inactive)
10,Cc1ccc2[nH]c(=O)c(-c3nc4ccc(C)cn4c3NCc3ccc(F)cc3)cc2c1,> 25 µM (inactive)
11,Cc1ccc(S(=O)(=O)N2CCCCC2)cc1NC(=O)c1ccc(C#N)cc1,> 25 µM (inactive)
12,CSc1ncccc1C(=O)OCc1ccccc1,> 25 µM (inactive)
13,CCOc1ccccc1NC(=O)Cn1c(=O)n(CCCC(=O)NCc2ccc(C)cc2)c(=O)c2sccc21,> 25 µM (inactive)
14,Cc1cccc(-c2nc(NC(=O)COc3ccc(F)cc3)no2)c1,> 25 µM (inactive)
15,O=C(NCCc1nc2ccccc2n1CCOc1ccccc1Cl)C1CCCCC1,> 25 µM (inactive)
16,CCC(C(=O)C(C)C(O)C(C)CCc1ccc(C)c(O)c1C(=O)O)C1OC(CC)(C2CCC(O)(CC)C(C)O2)CC1C (stereo not drawn),> 25 µM (inactive)
17,COCCNC(=O)c1cc(-c2ccn(C3CCCC3)n2)n2ccccc12,> 25 µM (inactive)
18,Cc1noc(C)c1CN1CCn2c1nc(-c1ccccc1)cc2=O,> 25 µM (inactive)
19,N#CCCN(C(=O)c1cc2c(s1)-c1ccccc1OC2)c1ccccc1,> 25 µM (inactive)
20,O=C1CC2(C(=O)N(Cc3ccc(Cl)cc3)c3ccccc32)c2cn[nH]c2N1 (stereo not drawn),> 25 µM (inactive)

row,Structure (SMILES),IC50
1,CN(c1ccccc1)S(=O)(=O)c1ccc(C(=O)Nc2cccc(C#N)c2)cc1,> 25 µM (inactive)
2,Cc1ccc2[nH]c3c(=O)n(Cc4ccc(N(C)C)cc4)cnc3c2c1,> 25 µM (inactive)
3,CCOc1ccccc1C1CC(=O)Nc2ccc3ccccc3c21 (stereo not drawn),> 25 µM (inactive)
4,Cc1cc(C(=O)NC2(O)C(=O)c3ccccc3C2=O)n(C)n1,20.6 µM
5,O=C(NCC(O)c1ccc([N+](=O)[O-])cc1)c1cccc(S(=O)(=O)N2CCOCC2)c1 (stereo not drawn),> 25 µM (inactive)
6,COc1ccc(C(=O)COC(=O)c2ccccc2NS(=O)(=O)c2ccc(O)c([N+](=O)[O-])c2)cc1,> 25 µM (inactive)
7,Cc1ccc(NCc2cc3c(-c4cccc(F)c4)nn(-c4ccccc4)c3[nH]c2=O)cc1C,21.6 µM
8,Cc1nnc(-c2ccc3ccn(CC(=O)N4CCN(c5ccccc5)CC4)c3c2)o1,> 25 µM (inactive)
9,Cc1ccc(S(=O)(=O)NCc2ccc(C(=O)NCCc3ccc(S(N)(=O)=O)cc3)cc2)cc1,> 25 µM (inactive)
10,C=C(CCC(C)(C)/C=C/CC/C(C)=C/COC(COP(=O)(O)O[C@@H]1OC(C(N)=O)[C@@](C)(O)[C@H](OC(N)=O)C1O[C@@H]1OC(CO[C@@H]2OC(CO)[C@H](O)[C@H](O)C2O)[C@H](O[C@@H]2OC(CO)[C@H](O[C@@H]3OC(C(=O)NC4=C(O)CCC4=O)[C@H](O)[C@H](O)C3O)[C@H](O)C2NC(C)=O)C(O)[C@@H]1NC(C)=O)C(=O)O)CC1C(=C)CCCC1(C)C (stereo partly drawn),> 25 µM (inactive)
11,COc1c(O)cc(CC(=O)O)c(C(C)=O)c1O,9.26 µM
12,CC[C@@H]1[C@@H](C)O[C@@](O)([C@@H](C)[C@H](O)[C@H](C)[C@H]2OC(=O)/C=C/C=C/[C@H](C)[C@@H]([C@@H](C)[C@@H](O)[C@H](C)[C@@]3(O)C[C@@H](O[C@H]4C[C@H](O)[C@H](O)[C@H](C)O4)[C@H](CC)[C@@H](C)O3)OC(=O)/C=C/C=C/[C@@H]2C)C[C@H]1O[C@H]1C[C@H](O)[C@H](O)[C@H](C)O1,> 25 µM (inactive)
13,O=C(O)C1C(C(=O)Nc2ccccc2)C2(c3ccccc3)C(=O)C1(c1ccccc1)C(c1ccccc1)=C2c1ccccc1 (stereo not drawn),> 25 µM (inactive)
14,O=C(Nc1ccccc1-c1nc2ccccc2[nH]1)c1sc2ccccc2c1Cl,> 25 µM (inactive)
15,COc1ccc(-c2cc3nc([C@H](C)NC(=O)Cc4ccccc4C)nn3cn2)cc1,> 25 µM (inactive)
16,C=Cc1cc(OC)c2c(c1)c(=O)oc1c2cc(OC)c2c(O)ccc([C@H]3OC(C)[C@@H](OC(C)=O)C(N(C)C)C3O)c21 (stereo partly drawn),> 25 µM (inactive)
17,Cc1ccc(C)c(NC(=O)Cn2cc(C(=O)C3CC3)c3ccccc32)c1,> 25 µM (inactive)
18,O=C1[C@H]2Cc3c([nH]c4ccccc34)CN2C(=O)CN1Cc1ccc(F)cc1,> 25 µM (inactive)
19,CC(NC(=O)c1ccccc1)c1nc2ccccc2n1CC(=O)Nc1ccc2c(c1)OCO2 (stereo not drawn),> 25 µM (inactive)
20,CCc1ccc(S(=O)(=O)c2cn(CC(=O)Nc3ccccc3)c3ccccc3c2=O)cc1,> 25 µM (inactive)

row,Structure (SMILES),IC50
1,O=C(CSc1nnc(C2CC2)n1-c1ccccc1)c1ccc(F)c(F)c1,> 25 µM (inactive)
2,Cc1cccc(NC(=O)Cn2cccc(S(=O)(=O)N3CCC(C)CC3)c2=O)c1C,> 25 µM (inactive)
3,c1ccc(-n2nnc(-c3noc(-c4ccc[nH]4)n3)c2-c2ccncc2)cc1,> 25 µM (inactive)
4,O=C(c1ccc2cc[nH]c2c1)N1CCC(Nc2cccnc2)C1 (stereo not drawn),> 25 µM (inactive)
5,CCOc1ccc(CC(=O)Nc2ccc(-c3cn4cccnc4n3)cc2)cc1,> 25 µM (inactive)
6,CC[C@H](C)[C@H](NC(=O)[C@H]([C@@H](C)CC)N(C)C(C)=O)C(=O)N[C@H](C(=O)N[C@@H](CC(C)C)C(=O)C1(C)CO1)[C@@H](C)O (stereo partly drawn),> 25 µM (inactive)
7,O=C(COc1ccc(N2CC(C(=O)NCc3ccccc3)CC2=O)cc1)Nc1ccc(F)cc1 (stereo not drawn),> 25 µM (inactive)
8,Cc1ccc2nc(CCc3ccc(NS(=O)(=O)c4ccc(F)c(Cl)c4)cc3)[nH]c2c1,> 25 µM (inactive)
9,Fc1ccc(Nc2nc(CN3CCOCC3)nc3sc4c(c23)CCC4)cc1Cl,> 25 µM (inactive)
10,CCOc1ccc(NS(=O)(=O)c2ccc(NC(=O)Nc3ccccc3)cc2)cc1,> 25 µM (inactive)
11,CCc1cccc(C)c1NC(=O)Cn1nc2ccc(C(=O)NCc3ccccc3)cn2c1=O,> 25 µM (inactive)
12,COC(=O)C1(Cc2ccc(O)cc2)OC(=O)C(O)=C1c1ccc(O)cc1 (stereo not drawn),18.9 µM
13,O=c1c(S(=O)(=O)c2cc(F)cc(F)c2)c[nH]c2cc(Cl)ccc12,> 25 µM (inactive)
14,CCc1[nH]c(=O)cc2cc(OC)c(OC)cc12,23.5 µM
15,COC1=C(C2=C(OC)C(=O)c3cc4c(c(O)c3C2=O)C(=O)OC(C)C4)C(=O)c2c(cc3c(c2O)C(=O)OC(C)C3)C1=O (stereo not drawn),11.9 µM
16,COc1ccc2c(CNCCC3=CCCCC3)c(C(=O)O)n(Cc3ccc(F)cc3)c2c1,> 25 µM (inactive)
17,COc1cc(C2CC(=O)Nc3nc(-c4ccccc4)[nH]c(=O)c32)cc(OC)c1O (stereo not drawn),> 25 µM (inactive)
18,COc1ccc(NC(=O)C2C3C=CC4(O3)C2C(=O)N(CCc2ccccc2)C4C(=O)NC2CCCCC2)cc1 (stereo not drawn),> 25 µM (inactive)
